Measurements taken from PubChem BioAssay AID1959 (Broad Institute, 2009).
Calls of active or inactive are those of the source.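 Rule for the calls: active = growth-inhibition EC50 no more than tenfold above the top tested dose; inconclusive = flat fit between 30% and 70% inhibition, or unreliable fit; inactive = EC50 more than tenfold above the top tested dose.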

What follows are molecules tested on E. coli NEB5alpha growth, BacTiter-Glo luminescence, 4 h (assay: Escherichia coli growth inhibition, dose response, counter-screen for MEX-5/POS-1 RNA-binding inhibitor project, luminescence, NEB5alpha (AID 1959);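 note: pUC19-transformed ampicillin-resistant cells grown in LB with ampicillin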).

SMILES | EC50
Cc1[nH][nH]c(=O)c1C(c1cc([N+](=O)[O-])ccc1O)c1c(C)[nH][nH]c1=O | > 11 µM (inactive)
Cc1cc(C)c2c(=O)[nH]c(=O)n(Cc3ccccc3)c2n1 | > 11 µM (inactive)
CCOC(=O)c1cnc(-n2nc(C)cc2C)nc1NNc1nc(C)cc(C)n1 | > 11 µM (inactive)
Cc1ccc(C(=O)CSc2nc3c([nH]2)c(=O)n(C)c(=O)n3C)cc1 | > 11 µM (inactive)
COc1ccc(OC)c(S(=O)(=O)Nc2ccc(O)c(Sc3ncn[nH]3)c2)c1 | > 11 µM (inactive)
CCN1CCc2c(sc(NC(=O)c3ccc4ccccc4c3)c2C(N)=O)C1 | > 11 µM (inactive)
COc1ccc(Nc2nc3ccccc3nc2NS(=O)(=O)c2cccs2)c(OC)c1 | > 11 µM (inactive)
Cc1cc(/C=c2/sc3nc4ccccc4n3c2=O)c(C)n1-c1ccccn1 | > 11 µM (inactive)
Cc1ccc(NC(=O)CCS(=O)(=O)c2cc3c(cc2Cl)NC(=O)CO3)cc1 | > 11 µM (inactive)
CCN(CC)c1ccc(/C=C2\C(=O)NC(=S)N(C)C2=O)o1 | > 11 µM (inactive)
N/C(=N\N=C/c1ccc(-c2ccc(O)c(C(=O)O)c2)o1)N[N+](=O)[O-] | > 11 µM (inactive)
Cc1ccc(CNC(=O)/C(C#N)=C\c2ccc(N(C)C)cc2)cc1 | > 11 µM (inactive)
O=c1[nH]nc(CNc2ccc(O)cc2)c2ccccc12 | > 11 µM (inactive)
Cc1cc(/C=C2\C(=O)NC(=O)N(c3ccc(Br)cc3)C2=O)c(C)n1C | > 11 µM (inactive)
N=c1c(C(=O)NC2CCCCC2)cc2c(=O)n3ccccc3nc2n1Cc1cccnc1 | > 11 µM (inactive)
Cc1nnc(N2C(=O)C(O)=C(C(=O)c3ccco3)C2c2cccc3ccccc23)s1 (configuration not stated) | > 11 µM (inactive)
COCCNC(=O)Cn1cc(/C=C2\C(=O)NC(=O)N(c3ccccc3F)C2=O)c2ccccc21 | > 11 µM (inactive)
Cc1c(C(=O)O)cccc1-n1c(C)cc(/C=C2\C(=O)NC(=O)N(c3ccc4c(c3)OCO4)C2=O)c1C | > 11 µM (inactive)
Cc1cc(=O)nc2c3ccccc3n(CC(=O)Nc3ccccc3Br)n12 | > 11 µM (inactive)
CCC(C)n1c(O)c(/C=N/Nc2nc3c(c(=O)n(C)c(=O)n3C)n2C)c(=O)[nH]c1=S (configuration not stated) | > 11 µM (inactive)
O=c1[nH]c(=S)[nH]c2[nH]c(=S)[nH]c12 | > 11 µM (inactive)
O=C(O)c1ccc2c3c(ncnc13)-c1ccccc1C2=O | > 11 µM (inactive)
Nc1ccc2nc(-c3cccc(-c4nc5ccc(N)cc5[nH]4)n3)[nH]c2c1 | > 11 µM (inactive)

SMILES | EC50
CCN1C(=O)/C(=C\c2cccs2)C(C(=O)OC)=C1C | > 11 µM (inactive)
CC1(C)CCCN(C(=O)c2coc(=O)c(Br)c2)C1 | > 11 µM (inactive)
O=C1CS/C(=C\[N+](=O)[O-])N1c1ccccc1 | > 11 µM (inactive)
O=C(NCC1CCCO1)c1nn2c(C(F)(F)F)cc(-c3cc(Br)cs3)nc2c1Br (configuration not stated) | > 11 µM (inactive)
CCOC(=O)N1CCN(C2=Nc3cccc4cccc2c34)CC1 | > 11 µM (inactive)
CC(=O)N(C)c1ccc(N=NC2C(=O)N(C(N)=S)N=C2C)cc1 (configuration not stated) | > 11 µM (inactive)
CC(=O)Nc1cccc(Oc2nc(-c3ccccn3)nc3ccccc23)c1 | > 11 µM (inactive)
COc1ccc(OC)c(C2=C/C(=C/c3ccccn3)C(=O)O2)c1 | > 11 µM (inactive)
Cc1ccc(S(=O)(=O)CCSc2nc(C)cc(C(F)(F)F)c2C#N)cc1 | > 11 µM (inactive)
O=C(O)C(=O)/C(=C\c1cccc2ccccc12)c1ccc2ccccc2n1 | > 11 µM (inactive)
CCN(CC)CCCNC(=O)CCC(=O)NNc1nc2ccccc2c2nc(C)nn12 | > 11 µM (inactive)
CC(C)(C)OC(=O)NCCCC1=CC2=CC(=O)C(C)(OC(=O)c3ccco3)C(=O)C2=CO1 (configuration not stated) | > 11 µM (inactive)
O=c1[nH]c(=O)n(CCc2ccc(F)cc2)c(O)c1C=NCCCn1ccnc1 | > 11 µM (inactive)
O=C1NC(=S)/C(=C\c2ccc(-c3ccccc3Cl)o2)S1 | > 11 µM (inactive)
CCCCCCn1c(O)c(C=NCCCn2ccnc2)c(=O)[nH]c1=O | > 11 µM (inactive)
Cc1cccc(NC(=O)CN2C(=O)N/C(=C\c3cccn3-c3cccc(C(=O)O)c3)C2=O)c1 | > 11 µM (inactive)
CSCC(C)N1CCC(N2CCC(C(=O)NCc3ccccn3)CC2)CC1 (configuration not stated) | > 11 µM (inactive)
CC(C)Cc1nn2c(N)c(/C=C3\C=Nc4ccccc43)c(=O)nc2s1 | > 11 µM (inactive)
Cc1cc(/C=N/n2cnnc2)c(C)n1-c1cccc(C(=O)O)c1 | > 11 µM (inactive)
Cc1cc(/C=N/NC(=O)c2cccc(N(C)C)c2)c(C)n1-c1cc(C(=O)O)cc(C(=O)O)c1 | > 11 µM (inactive)
Cc1ccc(S(=O)(=O)NNC(=S)NC(=O)c2ccc([N+](=O)[O-])cc2)cc1 | > 11 µM (inactive)
COc1cc(C2C(C#N)=C(N)OC3=C2C(=O)CCC3)cc(OC)c1OC(=O)N1CCOCC1 (configuration not stated) | > 11 µM (inactive)
CCC(=O)OC1(C)C(=O)C=C2C=C(c3ccc(C#N)cc3)OC=C2C1=O (configuration not stated) | > 11 µM (inactive)

SMILES | EC50
COc1ccc(/C=C2\N=C(C)OC2=O)cc1OC | > 11 µM (inactive)
CCN(CC)c1ccc(N=Cc2c(O)n(-c3cc(OC)ccc3OC)c(=O)[nH]c2=O)cc1 | > 11 µM (inactive)
Cc1ccc(CS(=O)Cc2ccc(C(=O)N3CCN(c4ccccc4)CC3)o2)cc1 (configuration not stated) | > 11 µM (inactive)
CCC(=O)OC1(C)C(=O)C2=COC(c3ccc(OC)cc3)=CC2=C(Br)C1=O (configuration not stated) | > 11 µM (inactive)
Cc1ccccc1NC(=O)/C(C#N)=C\c1cc(C)n(-c2ccc(C(=O)O)cc2)c1C | > 11 µM (inactive)
CC(C)(C)c1ccc(OCc2ccc(C(=O)Nc3cccnc3)o2)cc1 | > 11 µM (inactive)
N=C1/C(=C\c2ccc(SCc3ccccc3)o2)C(=O)N=C2SC(CC(=O)N3CCOCC3)=NN12 | > 11 µM (inactive)
CC1CCc2nn(CC(=O)NCCN3CCCCC3C)cc2C1 (configuration not stated) | > 11 µM (inactive)
O=C(O)c1cc(-c2ccc(/C=N/Nc3ccc([N+](=O)[O-])cn3)o2)ccc1Cl | > 11 µM (inactive)
O=C(O)c1cc(O)c2c(c1)[C@H]([C@H]1c3cc(C(=O)O)cc(O)c3C(=O)c3c(O[C@@H]4O[C@H](CO)[C@@H](O)[C@H](O)[C@H]4O)cccc31)c1cccc(OC3O[C@H](CO)[C@@H](O)[C@H](O)[C@H]3O)c1C2=O (some centres not stated) | > 11 µM (inactive)
COc1ccc(CCC(=O)Nc2cccc(Cl)c2)cc1 | > 11 µM (inactive)
COc1ccc(C2C(C#N)=C(N)OC3=C2C(=O)CC(C)(C)C3)cc1Cn1nc(C)c([N+](=O)[O-])c1C (configuration not stated) | > 11 µM (inactive)
NS(=O)(=O)c1ccc(-c2ccc(/C=C3\SC(=O)NC3=O)o2)cc1 | > 11 µM (inactive)
Cc1cc(O)cc2c1C(=O)/C(=C/c1ccco1)O2 | > 11 µM (inactive)
CC(=O)N(C)c1ccc(N=Nc2c(C)[nH]n(C(N)=S)c2=O)cc1 | > 11 µM (inactive)
O=[N+]([O-])c1ccc(C2=Nc3cc(Cl)ccc3OC2)cc1 | > 11 µM (inactive)
COc1ccc2nc3ccccc3nc2c1NC(=O)c1ccccc1Cl | > 11 µM (inactive)
COc1ccccc1N1C(=O)C(Cl)=C(Nc2ccccc2O)C1=O | > 11 µM (inactive)
CCN(CC)c1ccc(/C=N/NC(=O)c2ccco2)c(O)c1 | > 11 µM (inactive)
CCN(C(=O)c1cc(Cl)ccc1OC)C1CCCCC1 | > 11 µM (inactive)
O=C(NCCO)c1ccc2nc(-c3ccco3)c(-c3ccco3)nc2c1 | > 11 µM (inactive)
CN1C(=O)S/C(=C/c2cccn2-c2cccc(C(=O)O)c2)C1=O | > 11 µM (inactive)
COc1cc(C2C(C#N)=C(N)OC3=C2C(=O)CC(C)(C)C3)cc([N+](=O)[O-])c1O (configuration not stated) | > 11 µM (inactive)

SMILES | EC50
Cc1cc([N+](=O)[O-])ccc1-c1ccc(/C=N/NC(=O)c2ccc(Br)o2)o1 | > 11 µM (inactive)
N#CC1=C(N)Oc2cc(O)c(Cl)cc2C1c1ccccc1F (configuration not stated) | > 11 µM (inactive)
Cc1cc(C=O)c(C)n1-c1ccc(Cl)c(C(=O)O)c1 | > 11 µM (inactive)
CCNc1nn2ccccc2c1/C=C(\C#N)C(=O)OCC | > 11 µM (inactive)
O=C1C=C(Nc2cccc3cccnc23)c2ccccc2C1=O | > 11 µM (inactive)
Nc1c(C(=O)N/N=C/c2cccnc2)oc2nc(-c3ccccc3)cc(-c3ccco3)c12 | > 11 µM (inactive)
CCOC(=O)C1CCN(C(=O)c2ccc3c(c2)NC(=O)/C(=C\c2ccc(C)cc2)S3)CC1 | > 11 µM (inactive)
Cc1ccc([N+](=O)[O-])cc1S(=O)(=O)Nc1ccc(O)c(Sc2ncn[nH]2)c1 | > 11 µM (inactive)
CCOC(=O)c1ccc(CC(=O)c2ccc(O)c(O)c2O)o1 | > 11 µM (inactive)
Cc1ccc(-c2ccc(CCC(=O)O)n2-c2cccc(C(=O)O)c2)cc1 | > 11 µM (inactive)
Oc1ccc(/C=N/NC(=S)Nc2cccnc2)c(O)c1O | > 11 µM (inactive)
CCN1C/C(=C/c2cccs2)c2nc3ccccc3c(C(=O)O)c2C1 | > 11 µM (inactive)
O=C1CCCC2=C1Sc1ccc(Cl)cc1N2 | > 11 µM (inactive)
COc1ccc(/C=C2/N=C(c3cccs3)OC2=O)cc1OC(C)C | > 11 µM (inactive)
COc1c(O)cc2oc(-c3ccc(O)c(O)c3)cc(=O)c2c1O | > 11 µM (inactive)
CCN1/C(=C2/SC(=S)N(NC(C)=O)C2=O)Sc2ccc(OC)cc21 | > 11 µM (inactive)
N#CC1=C(N)C(C#N)(C#N)[C@H](c2ccsc2)[C@H]2COCC=C12 | > 11 µM (inactive)
COc1ccc(NS(=O)(=O)c2ccc3c(c2)[C@H]2C=CC[C@H]2[C@@H](c2ccc(C(=O)O)cc2)N3)cc1 | > 11 µM (inactive)
COC(=O)CCCC1=CC2=CC(=O)C(C)(OC(=O)C3CCCC3)C(=O)C2=CO1 (configuration not stated) | > 11 µM (inactive)
CC(C)OCCCn1c(=NC(=O)c2cccs2)c(C#N)cc2c(=O)n3ccccc3nc21 | > 11 µM (inactive)
COc1ccc(OC)c(N2C(=O)/C(=C/c3ccco3)C(=O)NC2=S)c1 | > 11 µM (inactive)
Cc1ccc(-n2ncc3c(NNC(=O)c4ccco4)ncnc32)cc1C | > 11 µM (inactive)
COC(=O)CCCC1=CC2=CC(=O)C(C)(OC(=O)c3cnc4ccccc4n3)C(=O)C2=CO1 (configuration not stated) | > 11 µM (inactive)
